Several values for one entry are separate records, joined by “and”; a condition that tells them apart may be missing. Equal entries are not always repeated.
Key:
[1] = tested on: Sacch. Cerevisae DSM 70449; test: Agar plate count after contact with antifungal; format: cell-based, Saccharomyces cerevisae; conditions: 400 mg/L; count at contact time 0 h 8.10^4 CFU/mL
Description: (§1) The word “bactericide” refers to a treatment having the effect of reducing a bacterial population by at least three decimal logarithms of colony forming units/ml on an agar plate count of a sample after treatment.
(§2) The toxicity results on yeasts and on bacteria are presented in the table below displaying the duration of exposure of the fungal flora to molecule A1 and the associated fluorescence measurement: yeasts lysis after exposure to the antifungal was confirmed by microscopic examination and methylene blue staining.
(§3) The words “contact time” refer to below, the time of exposure of the microorganisms to the fungicidal product, here molecule A1.
(§4) Below: “No CFU” is the abbreviation for “No Colony forming unit on agar plate count”.
(§5) The toxicity results on yeasts and on bacteria are presented in the table below displaying the duration of exposure of the fungal flora to the molecule A2 and are obtained by enumeration on MRS agar media.

[2] = tested on: Sacch. Cerevisae Saflager S23; test: Agar plate count after contact with antifungal; format: cell-based, Saccharomyces cerevisae; conditions: 400 mg/L; count at contact time 0 h 9.10^4 CFU/mL
Description: as §1, §2, §3, §4, §5

[3] = tested on: Sacch. Diastaticus IFBM; test: Agar plate count after contact with antifungal; format: cell-based, Saccharomyces diastaticus; conditions: 400 mg/L; count at contact time 0 h 2.10^5 CFU/mL
Description: as §1, §2, §3, §4, §5

[4] = tested on: Acetobacter aceti DSM 3508; test: Agar plate count after contact with antifungal; format: cell-based; conditions: count at contact time 0 h 2.9.10^7 CFU/mL
Description: as §1, §2, §3, §4, §5

[5] = tested on: Brettanomyces bruxellensis Wyeast labs; test: Agar plate count after contact with antifungal; format: cell-based
Description: as §1, §2, §3, §4, §5

[6] = tested on: Dekkera anomala IFBM; test: Agar plate count after contact with antifungal; format: cell-based; conditions: 400 mg/L; count at contact time 0 h 1.10^5 CFU/mL
Description: as §1, §2, §3, §4, §5

[7] = tested on: Lactobacillus parabuchneri DSM 5708; test: Agar plate count after contact with antifungal; format: cell-based; conditions: count at contact time 0 h 1.4.10^6 CFU/mL
Description: as §1, §2, §3, §4, §5

[8] = tested on: Lactobacillus paracasei IFBM; test: Agar plate count after contact with antifungal; format: cell-based; conditions: count at contact time 0 h 1.4.10^7 CFU/mL
Description: as §1, §2, §3, §4, §5

[9] = tested on: Oenococcus oeni DSM 20252; test: Agar plate count after contact with antifungal; format: cell-based
Description: as §1, §2, §3, §4, §5

[10] = tested on: Pedicoccus damnosus IFBM; test: Agar plate count after contact with antifungal; format: cell-based
Description: as §1, §2, §3, §4, §5

[11] = tested on: Zyggosaccharomyces bailii; test: Agar plate count after contact with antifungal; format: cell-based; conditions: 400 mg/L; count at contact time 0 h 3.10^5 CFU/mL
Description: as §1, §2, §3, §4, §5

[12] = tested on: lactic acid bacteria and acetic acid bacteria; test: Bactericidal action on the bacterial flora (conclusion from agar plate counts); format: cell-based; conditions: bactericide = reduction by at least three decimal logarithms of CFU/ml
Description: as §1, §2, §5

[13] = tested on: Brettanomyces bruxellensis; test: Atpmetry check, initial protocol (Filtravette), with plate count; format: cell-based; conditions: 4 h contact time; without antifungal 2.8.10^6 CFU/500 μL
Method: (§6) For the molecule A1, an Atpmetry check of the fungal flora destruction and of the antifungal treatment harmlesness on the lactic acid or acetic acid bacterial flora has been done for a contact time of 4 hours or 8 hours and on different strains.
(§7) Strains tested: Oenococcus oeni DSM, Gluconobacter oxydans, B. bruxellensis, S. cerevisae, prepared in MRS broth.
(§8) Materials: Lum-1 ATP meter (model analogous to Profile-1 bioluminometer from New Horizons Diagnostics) was tested with Biothema Ab bioluminescence reagents, namely reagents “ATP Eliminating Buffer”, “Extractant B/S”, “ATP Reagent HS” and 0.45 μm porosity Filtravette™ cuvette-filters from New Horizons Diagnostics.
(§9) Addition of 500 μL of the suspension without fungicidal treatment or with fungicidal treatment inside a 10 mL plastic syringe containing at its end a cell concentrator incorporating a Filtravette™.
(§10) Filtration through the Filtravette™
(§11) Filtravette™ deposit on a Filtravette™ holder with a blotter pad below
(§12) Addition of 50 μL of “ATP Eliminating Buffer” inside the Filtravette
(§13) 10 minutes incubation at room temperature
(§14) Flushing of the “ATP Eliminating Buffer” Reagent through the blotter pad by positive pressure
(§15) Homogenization and 1 minute incubation.
(§16) Addition of 240 μL of “ATP Reagent HS”. Homogenization.
(§17) Insertion of the Filtravette into the Lum-1 drawer and closure of the drawer.

[14] = tested on: Gluconobacter oxydans; test: as above; format: cell-based
Method: as §6, §7, §8, §9, §10, §11, §12, §13, §14, §15, §16, §17

[15] = tested on: Oenococcus oeni DSM; test: as above; format: cell-based; conditions: 4 h contact time; without antifungal 0.9.10^7 CFU/500 μL
Method: as §6, §7, §8, §9, §10, §11, §12, §13, §14, §15, §16, §17

[16] = tested on: Saccharomyces cerevisae DSM; test: as above; format: cell-based; conditions: Antifungal 4 h contact time
Method: as §6, §7, §8, §9, §10, §11, §12, §13, §14, §15, §16, §17

[17] = tested on: Brettanomyces bruxellensis; test: Atp bioluminescence, simplified protocol, with plate count; format: cell-based; conditions: Treated 8 h antifungal contact time
Method: Use of […] transparent Greiner Bio One sterile flat bottom disposable cuvettes with Biothema AB bioluminescence reagents • 1. […] Addition of 150 μL of “ATP Reagent HS”, Homogenization. • 4.

[18] = tested on: yeasts; test: Microscopic examination and methylene blue staining of yeasts after antifungal; format: cell-based
Description: as §2

[19] = tested on: Saccharomyces diastaticus; test: Atp bioluminescence, simplified protocol, with plate count; conditions: Treated (4 h)

SMILES: C[C@@H]1[C@H](O)[C@@H](C)/C=C/C=C/C=C/C=C/C=C/C=C/C=C/[C@H](O[C@@H]2O[C@H](C)[C@@H](O)[C@H](N)[C@@H]2O)C[C@@H]2O[C@](O)(C[C@@H](O)C[C@@H](O)[C@H](O)CC[C@@H](O)C[C@@H](O)CC(=O)O[C@H]1C)C[C@H](O)[C@H]2C(=O)O [Molecule A1, Amphotericin B]
- Agar plate count contact time 4 h [1]: No CFU
- Agar plate count contact time 4 h [2]: No CFU
- Agar plate count contact time 4 h [3]: No CFU
- Agar plate count contact time 4 h ([4]; 200 mg/L): 8.10^8 CFU/mL
- Agar plate count contact time 4 h ([4]; 400 mg/L): 3.10^7 CFU/mL
- Agar plate count contact time 4 h ([5]; 200 mg/L, count at contact time 0 h 6.10^6 CFU/mL): No CFU
- Agar plate count contact time 4 h ([5]; 400 mg/L, count at contact time 0 h 3.10^5 CFU/mL): No CFU
- Agar plate count contact time 4 h [6]: No CFU
- Agar plate count contact time 4 h ([7]; 200 mg/L): 1.10^6 CFU/mL
- Agar plate count contact time 4 h ([7]; 400 mg/L): 3.10^5 CFU/mL
- Agar plate count contact time 4 h ([8]; 200 mg/L): 2.4.10^7 CFU/mL
- Agar plate count contact time 4 h ([8]; 400 mg/L): 1.10^7 CFU/mL
- Agar plate count contact time 4 h ([9]; 200 mg/L, count at contact time 0 h 4.10^9 CFU/mL): 6.10^9 CFU/mL
- Agar plate count contact time 4 h ([9]; 400 mg/L, count at contact time 0 h 4.10^7 CFU/mL): 5.10^7 CFU/mL
- Agar plate count contact time 4 h ([10]; 200 mg/L, count at contact time 0 h 7.2.10^5 CFU/mL): 8.10^5 CFU/mL
- Agar plate count contact time 4 h ([10]; 400 mg/L, count at contact time 0 h 1.1.10^5 CFU/mL): 2.10^7 CFU/mL
- Agar plate count contact time 4 h [11]: No CFU
- Bactericidal action on lactic acid and acetic acid flora ([12]; doses of 200 mg/liter): non-bactericidal for lactic acid bacteria and acetic acid bacteria
- Bactericidal action on lactic acid and acetic acid flora ([12]; doses of 400 mg/liter): non-bactericidal
- Plate count with antifungal [13]: 0 CFU/500 μL
- Atp bioluminescence with antifungal treatment ([14]; MRS broth, 500 μL analysed, 1.10^7 CFU/500 μL before treatment, 115966 RLU): 77057 RLU
- Plate count with antifungal ([14]; before treatment 1.10^7 CFU/500 μL): 4.1.10^6 CFU/500 μL
- Plate count with antifungal [15]: 4.10^6 CFU/500 μL
- Agar plate count with antifungal ([16]; start 5.10^2 CFU/500 μL): time no count on agar
- Atp bioluminescence with antifungal treatment ([16]; start 5.10^2 CFU/500 μL, untreated 206949 and 149508 RLU): 642 RLU
- Agar plate count with antifungal ([16]; start 5.10^3 CFU/500 μL): time no count on agar
- Atp bioluminescence with antifungal treatment ([16]; start 5.10^3 CFU/500 μL, untreated >1000000 RLU): 4665 RLU
- total bioluminescence with lysis agent ([17]; start 2.7.10^2 CFU/100 μL, untreated with lysis agent 26990 and 31661, background 862 and 718 RLU): 933 RLU and 553 RLU
- total bioluminescence with lysis agent ([17]; start 2.7.10^3 CFU/100 μL, untreated with lysis agent 242958 and 265513, background 5346 and 5390 RLU): 4441 RLU and 4433 RLU
- Concentration after treatment ([17]; untreated 2.7.10^2 CFU/100 μL): 0 CFU/100 μL
- Concentration after treatment ([17]; untreated 2.7.10^3 CFU/100 μL): 0 CFU/100 μL
- yeasts lysis after exposure to the antifungal [18]: confirmed
- total bioluminescence in duplicate with lysis agent ([19]; start 7.5.10^1 CFU/100 μL, untreated + extractant 1934 and 1241 RLU): 482 RLU
- luminescent backgroud noise in duplicate without lysis agent after luciferin/luciferase addition ([19]; start 7.5.10^1 CFU/100 μL, untreated background 34 and 34 RLU): 457 RLU and 436 RLU
- total bioluminescence in duplicate with lysis agent ([19]; start 7.5.10^2 CFU/100 μL, untreated + extractant 16239 and 16707 RLU): 4393 RLU
- luminescent backgroud noise in duplicate without lysis agent after luciferin/luciferase addition ([19]; start 7.5.10^2 CFU/100 μL, untreated background 211 and 223 RLU): 3803 RLU and 3837 RLU
- Concentration after treatment ([19]; untreated 7.5.10^1 CFU/100 μL): 0 CFU/100 μL
- Concentration after treatment ([19]; untreated 7.5.10^2 CFU/100 μL): 0 CFU/100 μL

From US20180037923A1, “SELECTIVE DETECTION OF LACTIC ACID AND/OR ACETIC ACID BACTERIA OR OF FUNGI” (priority 2015, published 2018)
